{"source": "ChEMBL document CHEMBL2073744", "about": "“The multidrug-resistant phenotype associated with overexpression of the new ABC half-transporter, MXR (ABCG2)” (J Cell Sci, 2000)", "key": {"[1]": {"target": "T1, Broad substrate specificity ATP-binding cassette transporter ABCG2 (Homo sapiens, UniProt Q9UNQ0)", "T1 sequence (Q9UNQ0 whole entry)": "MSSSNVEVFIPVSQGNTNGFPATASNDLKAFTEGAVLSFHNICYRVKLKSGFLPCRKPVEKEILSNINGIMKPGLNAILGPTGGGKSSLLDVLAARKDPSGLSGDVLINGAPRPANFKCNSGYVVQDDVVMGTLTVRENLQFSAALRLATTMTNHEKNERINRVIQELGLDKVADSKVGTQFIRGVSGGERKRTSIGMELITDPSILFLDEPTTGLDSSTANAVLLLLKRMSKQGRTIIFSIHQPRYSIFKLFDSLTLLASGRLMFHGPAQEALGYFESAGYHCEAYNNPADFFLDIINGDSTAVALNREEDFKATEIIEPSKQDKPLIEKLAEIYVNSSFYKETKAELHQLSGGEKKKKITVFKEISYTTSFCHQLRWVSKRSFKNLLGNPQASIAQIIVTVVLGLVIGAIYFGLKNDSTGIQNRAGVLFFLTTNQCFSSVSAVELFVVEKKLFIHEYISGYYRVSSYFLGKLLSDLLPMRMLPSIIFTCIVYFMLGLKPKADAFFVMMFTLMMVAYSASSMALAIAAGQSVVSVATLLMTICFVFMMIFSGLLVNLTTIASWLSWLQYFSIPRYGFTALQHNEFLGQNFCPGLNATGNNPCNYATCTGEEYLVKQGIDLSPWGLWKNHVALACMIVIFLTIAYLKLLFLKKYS", "experiment": "TP_TRANSPORTER: intracellular accumulation in MCF-7 and MCF-7 AdVp3000 cells", "assay_type": "functional, cell-based"}, "[2]": {"target": "T1, Broad substrate specificity ATP-binding cassette transporter ABCG2", "experiment": "TP_TRANSPORTER: intracellular accumulation in S1 and S1-M1-80 cells", "assay_type": "functional, cell-based", "settings": "s1;s1-m1-80"}}, "data": [{"smiles": "O=C1c2c(O)ccc(O)c2C(=O)c2c(NCCNCCO)ccc(NCCNCCO)c21", "note": "[MITOXANTRONE]", "values": [{"measurement": "Activity", "setting": "[1]", "result": "substrate [+]"}, {"measurement": "Activity", "setting": "[2]", "result": "substrate [+]"}]}]}
